For one assay, the system named is IL-6. Description: Inhibition of IL-6 in LPS-stimulated THP-1 human monocyte cells (HTRF). The class given is cell-based. Conditions: for pEC50: IL-6 inhibition, LPS-stimulated THP-1 cells, HTRF; for inhibition at 10 µM: THP-1, printed beside >10 μM EC50, top concentration 10 μM, meaning not given, read-out: percentage in parentheses after EC50 >10. The method in brief: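 THP-1 cells serum-reduced (1% FBS, 24 h), then 5000 cells/well preincubated 2 h with compound (10-point 1:3 series from 10 μM, 0.1% DMSO) before 500 ng/mL LPS for 22 h at 37 °C. Secreted IL-6 quantified by HTRF 665/620 ratio; DMSO-normalised duplicates fitted to four-parameter EC50; above 10 μM, % inhibition at 10 μM given.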

Assay [1] has as its system primary human mesenchymal stem cells (hMSCs). Description: Induction of chondrogenesis in primary human mesenchymal stem cells (nodule imaging, Rhodamine B / Nile Red). Format: cell-based. The method in brief:
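hMSCs (passage 3–6) in incomplete chondrogenic induction medium dosed at 2700–10 nM (96-well) or 5000–2.2 nM (384-well), 0.03% DMSO, for 6 days at 37 °C. Fixed cells stained with Rhodamine B/Nile Red and nodule area imaged, normalized to DMSO wells (fold change). EC50 set against TGF-β3 (10 ng/mL); maximum activity and its dose also reported.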

pEC50: −log10 of the molar value.

For orientation: pEC50 means the negative decadic logarithm of the EC50, by convention in mol/L. Consider `CC(C)(C)CC(=O)Nc1cncc(-c2ccc3[nH]nc(-c4cc5c(-c6ccsc6)cccc5[nH]4)c3c2)c1` [Compound 296, 3,3-Dimethyl-N-(5-(3-(4-(thiophen-3-yl)-1H-indol-2-yl)-1H-indazol-5-yl)pyridin-3-yl)butanamide], for which, in the assay with IL-6, the pEC50 was < 5.00 and the inhibition at 10 µM amounted to 31.6%.
Taken in the same sequence, the figures for `O=C(Nc1cncc(-c2ccc3[nH]nc(-c4cc5c(-c6ccsc6)cccc5[nH]4)c3c2)c1)C1CCCCC1` [Compound 303, N-(5-(3-(4-(Thiophen-3-yl)-1H-indol-2-yl)-1H-indazol-5-yl)pyridin-3-yl) cyclohexanecarboxamide] were < 5.00 and 43.9%.
With `Nc1cncc(-c2ccc3[nH]nc(-c4cc5c(-c6ccoc6)cccc5[nH]4)c3c2)c1` [Compound 311, 5-(3-(4-(Furan-3-yl)-1H-indol-2-yl)-1H-indazol-5-yl)pyridin-3-amine], the EC50 in assay [1] (concentration required to induce 50% levels of chondrogenesis vs TGF-β3 positive control, read-out: Conc (nM) of 50% TGF-β3 activity) is 10 nM. Moreover, the Emax in assay [1] (maximum chondrogenesis activity relative to TGF-β3 (10 ng/mL) positive control, read-out: Max. Activity as % TGF-β3 activity) was found to be 197%. In the assay on IL-6, this molecule had a pEC50 of 6.28.
With `c1cc(-c2ccoc2)c2cc(-c3n[nH]c4ccc(-c5cncc(CNCC6CCCC6)c5)cc34)[nH]c2c1` [Compound 333, 1-Cyclopentyl-N-((5-(3-(4-(furan-3-yl)-1H-indol-2-yl)-1H-indazol-5-yl)pyridin-3-yl)methyl)methanamine], the pEC50 in the assay with IL-6 is 5.12.
Same read-out and setting: the same measure for `Fc1cccc(-c2cccc3[nH]c(-c4n[nH]c5ccc(-c6ccncc6)cc45)cc23)c1` [Compound 18, 3-(4-(3-Fluorophenyl)-1H-indol-2-yl)-5-(pyridin-4-yl)-1H-indazole]: 7.51; for `O=C(Cc1ccccc1)Nc1cncc(-c2ccc3[nH]nc(-c4cc5c(-c6ccoc6)cccc5[nH]4)c3c2)c1` [Compound 318, N-(5-(3-(4-(Furan-3-yl)-1H-indol-2-yl)-1H-indazol-5-yl)pyridin-3-yl)-2-phenylacetamide]: 6.52.

The values are drawn from patent US10604512B2, “3-(1H-indol-2-yl)-1H-indazoles and therapeutic uses thereof” (Samumed, LLC, priority 2015, dated 2020).
